Measurements taken from US4272437A, “Antibacterial agents, and 4-thio azetidinone intermediates” (priority 1979, dated 1981).
In brackets after ≈: the same amount, converted by molar mass. Where two headings read alike, the source gives them in different places.

What was measured:
[1] = tested on: Staph. aureus A-9537 and 50% serum; experiment: MIC, tube dilution, Staph. aureus A9537 + 50% serum; format: cell-based, Staphylococcus aureus; conditions: Staphylococcus aureus, overnight 37° C., read-out: Minimum Inhibitory Concentration (M.I.C.)
Text: (§1) Representative compounds of the present invention were subjected to in vitro antibiotic screening against a variety of microorganisms.

Str. pneumoniae A-9585 = experiment: MIC, tube dilution, Streptococcus pneumoniae A9585; format: cell-based; conditions: Streptococcus pneumoniae, A9585, Str. pneumoniae A9585; overnight 37° C., Nutrient Broth; read-out: Minimum Inhibitory Concentration (M.I.C.)
Text: as §1

Str. pyogenes A-9604 = experiment: MIC, tube dilution, Streptococcus pyogenes A9604; format: cell-based; conditions: Streptococcus pyogenes, A9604, Str. pyogenes A9604; overnight 37° C., Nutrient Broth; read-out: Minimum Inhibitory Concentration (M.I.C.)
Text: as §1

Ps. aeruginosa A-21213 = experiment: MIC, tube dilution, Pseudomonas aeruginosa A21213; format: cell-based; conditions: Pseudomonas aeruginosa A21213; overnight 37° C.; read-out: Minimum Inhibitory Concentration (M.I.C.)
Text: as §1

K. pneumoniae A-15130 = experiment: MIC, tube dilution, Klebsiella pneumoniae A15130; format: cell-based; conditions: Klebsiella pneumoniae, A15130, K. pneumoniae A15130; overnight 37° C.; read-out: Minimum Inhibitory Concentration (M.I.C.)
Text: as §1

Ps. aeruginosa A-9843A = experiment: MIC, tube dilution, Pseudomonas aeruginosa A9843A; format: cell-based; conditions: Pseudomonas aeruginosa, A9843A, read-out: Minimum Inhibitory Concentration (M.I.C.), Pseudomonas aeruginosa A9843A; overnight 37° C.
Text: as §1

Proteus vulgaris A21559 = experiment: MIC, tube dilution, Proteus vulgaris A21559; format: cell-based; conditions: Proteus vulgaris, A21559, Proteus vulgaris A21559; overnight 37° C.; read-out: Minimum Inhibitory Concentration (M.I.C.)
Text: as §1

[2] = tested on: Klebsiella species A20468; experiment: MIC, tube dilution, Klebsiella species A20468; format: cell-based; conditions: Klebsiella species (K. pneumoniae) A20468; overnight 37° C.; read-out: Minimum Inhibitory Concentration (M.I.C.)
Text: as §1

E. coli A-15119 = experiment: MIC, tube dilution, Escherichia coli A15119; format: cell-based; conditions: Escherichia coli, A15119, E. coli A15119; overnight 37° C.; read-out: Minimum Inhibitory Concentration (M.I.C.)
Text: as §1

Pr. morganii A-15153 = experiment: MIC, tube dilution, Proteus morganii A15153; format: cell-based; conditions: overnight 37° C.; for MIC: Morganella morganii, A15153, Proteus morganii A15153, read-out: Minimum Inhibitory Concentration (M.I.C.)
Text: as §1

Ent. cloacae A-9659 = experiment: MIC, tube dilution, Enterobacter cloacae A9659; format: cell-based; conditions: Enterobacter cloacae, A9659, Enterobacter cloacae A9659; overnight 37° C.; read-out: Minimum Inhibitory Concentration (M.I.C.)
Text: as §1

Pr. mirabilis A-9900 = experiment: MIC, tube dilution, Proteus mirabilis A9900; format: cell-based; conditions: overnight 37° C.; for MIC: Proteus mirabilis, A9900, Proteus mirabilis A9900, read-out: Minimum Inhibitory Concentration (M.I.C.)
Text: as §1

Ser. marcescens A-20019 = experiment: MIC, tube dilution, Serratia marcescens A20019; format: cell-based; conditions: Serratia marcescens, A20019, Serratia marcescens A20019; overnight 37° C.; read-out: Minimum Inhibitory Concentration (M.I.C.)
Text: as §1

S. aureus A9537 = experiment: In vivo protection of mice, lethal infection with S. aureus A9537; conditions: Staphylococcus aureus, A9537, im, IM, 2 treatments, read-out: PD50
Procedure: Representative compounds of the present invention were also tested in vivo in mice and their PD50 (dose of compound in mg/kg required to protect 50% of the treated mice against an otherwise lethal infection of a micro-organism) values determined with respect to the test organisms shown below.

E. coli A-20341-1 = experiment: MIC, tube dilution, Escherichia coli A20341-1; format: cell-based; conditions: Escherichia coli, A203411, E. coli A20341-1; overnight 37° C.; read-out: Minimum Inhibitory Concentration (M.I.C.)
Text: as §1

Ent. cloacae A-9656 = experiment: MIC, tube dilution, Enterobacter cloacae A9656; format: cell-based; conditions: Enterobacter cloacae, A9656, Enterobacter cloacae A9656; overnight 37° C.; read-out: Minimum Inhibitory Concentration (M.I.C.)
Text: as §1

[3] = tested on: Staph. aureus (Pen-Res) A-9606; experiment: MIC, tube dilution, Staphylococcus aureus A9606 (Pen-Res); format: cell-based; conditions: Staphylococcus aureus, Staph. aureus A9606 (Pen-Res); overnight 37° C.; read-out: Minimum Inhibitory Concentration (M.I.C.)
Text: as §1

[4] = tested on: Staph. aureus (Meth-Res) A-15097; experiment: MIC, tube dilution, Staphylococcus aureus A15097 (Meth-Res); format: cell-based; conditions: Staph. aureus A15097 (Meth-Res), overnight 37° C.; for MIC: Staphylococcus aureus, read-out: Minimum Inhibitory Concentration (M.I.C.)
Text: as §1

Str. faecalis A-20688 = experiment: MIC, tube dilution, Streptococcus faecalis A20688; format: cell-based; conditions: Enterococcus faecalis, A20688, Str. faecalis A20688; overnight 37° C.; read-out: Minimum Inhibitory Concentration (M.I.C.)
Text: as §1

Staph. aureus A-9537 = experiment: MIC, tube dilution, Staphylococcus aureus A9537; format: cell-based; conditions: Staphylococcus aureus, A9537, Staph. aureus A9537; overnight 37° C., Nutrient Broth; read-out: Minimum Inhibitory Concentration (M.I.C.)
Text: as §1

Proteus rettgeri A21203 = experiment: MIC, tube dilution, Proteus rettgeri A21203; format: cell-based; conditions: Providencia rettgeri, A21203, Proteus rettgeri A21203; overnight 37° C.; read-out: Minimum Inhibitory Concentration (M.I.C.)
Text: as §1

Row | SMILES | MIC [1] | MIC (Str. pneumoniae A-9585) | MIC (Str. pyogenes A-9604) | MIC (K. pneumoniae A-15130) | MIC (Ps. aeruginosa A-9843A) | MIC (Proteus vulgaris A21559) | MIC [2] | MIC (E. coli A-15119) | MIC (Pr. morganii A-15153) | MIC (Ent. cloacae A-9659) | MIC (Pr. mirabilis A-9900) | MIC (Ser. marcescens A-20019) | MIC (E. coli A-20341-1) | MIC (Ent. cloacae A-9656) | MIC [3] | MIC [4] | MIC (Str. faecalis A-20688) | MIC (Staph. aureus A-9537) | MIC (Proteus rettgeri A21203) | ED50 (S. aureus A9537; 8 × 10^5 organisms) | also measured
1 | CC1=C(C(=O)O)N2C(=O)[C@H]([C@@H](C)O)[C@H]2S1 (relative stereo) [Example 60, (1'R,5R,6S and 1'S,5S,6R) 6-(1'-Hydroxy-1'-ethyl)-2-methylpenem-3-carboxylic Acid (isomer B)] | 8 µg/mL | 0.25 µg/mL (≈ 1.09 µM) | 1 µg/mL (≈ 4.36 µM) | 16 µg/mL (≈ 69.8 µM) | > 125 µg/mL | 16 µg/mL (≈ 69.8 µM) | 16 µg/mL (≈ 69.8 µM) | 16 µg/mL (≈ 69.8 µM) | 32 µg/mL (≈ 140 µM) | 32 µg/mL (≈ 140 µM) | 32 µg/mL (≈ 140 µM) | 16 µg/mL (≈ 69.8 µM) | 16 µg/mL (≈ 69.8 µM) | 16 µg/mL (≈ 69.8 µM) | 4 µg/mL (≈ 17.4 µM) | 8 µg/mL (≈ 34.9 µM) | 63 µg/mL (≈ 275 µM) | 2 µg/mL (≈ 8.72 µM) | 16 µg/mL (≈ 69.8 µM) |  | MIC (Ps. aeruginosa A-21213): > 125 µg/mL; Minimum Inhibitory Concentration (M.I.C.) (Pr. morganii A-15153; Proteus morganii A15153): 16 µg/mL; Minimum Inhibitory Concentration (M.I.C.) (Pr. mirabilis A-9900; Proteus mirabilis A9900): 16 µg/mL; ED50 (S. aureus A9537; 6.6 × 10^5 organisms): 7.7 mg/kg
2 | C[C@@H](O)[C@H]1C(=O)N2C(C(=O)O)=C(COCCN)S[C@H]12 (relative stereo) [Example 66, (1'R,5R, 6S and 1'S,5S,6R) 6-(1'-Hydroxyethyl)-2-(2-aminoethoxymethyl)penem-3-carboxylic Acid (isomer B)] |  |  |  |  |  |  |  |  |  |  |  |  |  |  |  |  |  |  |  |  | ED50 (S. aureus A9537; 1.1 × 10^6 organisms): 0.12 mg/kg
3 | C[C@@H](O)[C@H]1C(=O)N2C(C(=O)O)=C(CN)S[C@H]12 (relative stereo) [Example 62, (1'R,5R,6S and 1'S,5S,6R) 2-Aminomethyl-6-(1'-hydroxy-1'-ethyl)-penem-3-carboxylic Acid (isomer B)] | 0.25 µg/mL | 0.03 µg/mL (≈ 0.123 µM) | 0.5 µg/mL (≈ 2.05 µM) | 16 µg/mL (≈ 65.5 µM) | 2 µg/mL (≈ 8.19 µM) | 2 µg/mL (≈ 8.19 µM) | 32 µg/mL (≈ 131 µM) | 8 µg/mL (≈ 32.8 µM) | 2 µg/mL (≈ 8.19 µM) | 32 µg/mL (≈ 131 µM) | 2 µg/mL (≈ 8.19 µM) | 16 µg/mL (≈ 65.5 µM) | 8 µg/mL (≈ 32.8 µM) | 1 µg/mL (≈ 4.09 µM) | 0.25 µg/mL (≈ 1.02 µM) | 0.5 µg/mL (≈ 2.05 µM) | 32 µg/mL (≈ 131 µM) | 0.03 µg/mL (≈ 0.123 µM) | 2 µg/mL (≈ 8.19 µM) |  | ED50 (S. aureus A9537; 8.6 × 10^5 organisms): 1 mg/kg
4 | NCC1CC1C1=C(C(=O)O)N2C(=O)CC2S1 [Example 79, (1'R,2'S,5S and 1'S,2'R,5S; 1'S,2'R,5R and 1'R,2'S,5S) 2-(trans-2-aminomethyl-1-cyclopropyl)-penem-3-carboxylic acid] | 0.25 µg/mL | 0.016 µg/mL (≈ 0.0666 µM) | 0.03 µg/mL (≈ 0.125 µM) | 16 µg/mL (≈ 66.6 µM) |  | 16 µg/mL (≈ 66.6 µM) | > 63 µg/mL | 4 µg/mL (≈ 16.6 µM) | 16 µg/mL (≈ 66.6 µM) | 32 µg/mL (≈ 133 µM) | 8 µg/mL (≈ 33.3 µM) | 8 µg/mL (≈ 33.3 µM) | 16 µg/mL (≈ 66.6 µM) |  | 0.5 µg/mL (≈ 2.08 µM) | > 63 µg/mL | 16 µg/mL (≈ 66.6 µM) | 0.06 µg/mL (≈ 0.25 µM) | 8 µg/mL (≈ 33.3 µM) | 0.8 mg/kg | Minimum Inhibitory Concentration (M.I.C.) [4]: 125 µg/mL
5 | C[C@@H](O)[C@H]1C(=O)N2C(C(=O)O)=C(CCCCN)S[C@H]12 (relative stereo) [Example 64, (1'R,5R,6S and 1'S,5S,6R)-2-(4-Aminobutyl)-6-(1'-hydroxy-ethyl)-penem-3-carboxylic Acid (isomer B)] | 0.13 µg/mL | 0.016 µg/mL (≈ 0.0559 µM) | 0.03 µg/mL (≈ 0.105 µM) | 4 µg/mL (≈ 14 µM) | 16 µg/mL (≈ 55.9 µM) | 2 µg/mL (≈ 6.98 µM) | 4 µg/mL (≈ 14 µM) | 2 µg/mL (≈ 6.98 µM) | 4 µg/mL (≈ 14 µM) | 4 µg/mL (≈ 14 µM) | 4 µg/mL (≈ 14 µM) | 4 µg/mL (≈ 14 µM) | 2 µg/mL (≈ 6.98 µM) | 16 µg/mL (≈ 55.9 µM) | 0.13 µg/mL (≈ 0.454 µM) | 0.25 µg/mL (≈ 0.873 µM) | 4 µg/mL (≈ 14 µM) | 0.06 µg/mL (≈ 0.21 µM) | 4 µg/mL (≈ 14 µM) | 0.04 mg/kg | 
